In ChEMBL document CHEMBL5705903, “A DNA Hypomethylation Signature Predicts Antitumor Activity of LSD1 Inhibitors in SCLC” (Cancer Cell, 2015):

Tests used:
Adenosine receptor A2a = Adenosine receptor A2a (Homo sapiens, UniProt P29274); assay: Agonist activity at Adenosine A2a receptor (unknown origin); format: functional
[1] = target: Alpha-1B adrenergic receptor (Homo sapiens, UniProt P35368); assay: Agonist activity at Adrenergic a1B receptor (unknown origin); format: functional
[2] = target: T1, Beta-2 adrenergic receptor (Homo sapiens, UniProt P07550); assay: Agonist activity at Adrenergic b2 receptor (unknown origin); format: functional
T1 sequence (P07550 whole entry): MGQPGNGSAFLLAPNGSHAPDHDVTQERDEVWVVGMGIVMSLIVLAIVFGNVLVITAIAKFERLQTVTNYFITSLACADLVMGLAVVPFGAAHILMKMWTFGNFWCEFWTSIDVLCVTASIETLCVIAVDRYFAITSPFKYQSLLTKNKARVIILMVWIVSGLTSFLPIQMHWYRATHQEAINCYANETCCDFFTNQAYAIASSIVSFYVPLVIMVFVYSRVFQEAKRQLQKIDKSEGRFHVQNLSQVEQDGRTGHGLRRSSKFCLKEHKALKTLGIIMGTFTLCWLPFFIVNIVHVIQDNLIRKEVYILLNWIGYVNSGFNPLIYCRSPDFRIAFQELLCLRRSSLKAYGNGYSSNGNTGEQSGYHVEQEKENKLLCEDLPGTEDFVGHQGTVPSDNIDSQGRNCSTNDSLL

[3] = target: T1, Beta-2 adrenergic receptor; assay: Antagonist activity at Adrenergic b2 receptor (unknown origin); format: functional
Cannabinoid receptor 2 = Cannabinoid receptor 2 (Homo sapiens, UniProt P34972); assay: Agonist activity at Cannabinoid CB2 receptor (unknown origin); format: functional
D(2) dopamine receptor [4] = target: T2, D(2) dopamine receptor (Homo sapiens, UniProt P14416); assay: Agonist activity at Dopamine D2 receptor (unknown origin); format: functional
T2 sequence (P14416 whole entry): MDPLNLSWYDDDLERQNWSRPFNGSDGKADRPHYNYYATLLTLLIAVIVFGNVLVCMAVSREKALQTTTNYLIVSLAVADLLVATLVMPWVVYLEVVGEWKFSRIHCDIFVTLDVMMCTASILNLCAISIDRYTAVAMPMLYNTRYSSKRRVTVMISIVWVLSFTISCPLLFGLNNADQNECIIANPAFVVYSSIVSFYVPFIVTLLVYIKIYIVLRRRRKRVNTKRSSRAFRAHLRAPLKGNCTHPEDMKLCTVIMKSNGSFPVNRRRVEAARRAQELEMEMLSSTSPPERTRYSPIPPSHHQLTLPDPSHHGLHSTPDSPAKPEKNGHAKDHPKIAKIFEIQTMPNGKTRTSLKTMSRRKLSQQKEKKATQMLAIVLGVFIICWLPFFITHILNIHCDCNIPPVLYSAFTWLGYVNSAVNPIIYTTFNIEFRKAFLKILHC

D(2) dopamine receptor [5] = target: T2, D(2) dopamine receptor; assay: Antagonist activity at Dopamine D2 receptor (unknown origin); format: functional
[6] = target: T3, Muscarinic acetylcholine receptor M1 (Homo sapiens, UniProt P11229); assay: Agonist activity at Muscarinic M1 receptor (unknown origin); format: functional
T3 sequence (P11229 whole entry): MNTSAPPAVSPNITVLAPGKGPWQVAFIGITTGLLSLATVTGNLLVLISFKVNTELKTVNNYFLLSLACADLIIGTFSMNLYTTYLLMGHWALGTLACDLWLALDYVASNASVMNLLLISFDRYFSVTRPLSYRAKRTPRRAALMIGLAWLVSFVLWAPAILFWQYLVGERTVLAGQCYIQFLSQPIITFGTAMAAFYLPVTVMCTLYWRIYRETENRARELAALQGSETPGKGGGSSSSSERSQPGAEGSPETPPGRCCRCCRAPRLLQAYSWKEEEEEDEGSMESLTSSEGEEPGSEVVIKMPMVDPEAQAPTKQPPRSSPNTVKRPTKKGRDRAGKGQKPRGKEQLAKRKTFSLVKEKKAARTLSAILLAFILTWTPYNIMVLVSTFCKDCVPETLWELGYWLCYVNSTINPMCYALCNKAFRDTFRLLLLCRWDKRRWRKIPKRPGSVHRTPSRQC

[7] = target: T4, Muscarinic acetylcholine receptor M2 (Homo sapiens, UniProt P08172); assay: Agonist activity at Muscarinic M2 receptor (unknown origin); format: functional
T4 sequence (P08172 whole entry): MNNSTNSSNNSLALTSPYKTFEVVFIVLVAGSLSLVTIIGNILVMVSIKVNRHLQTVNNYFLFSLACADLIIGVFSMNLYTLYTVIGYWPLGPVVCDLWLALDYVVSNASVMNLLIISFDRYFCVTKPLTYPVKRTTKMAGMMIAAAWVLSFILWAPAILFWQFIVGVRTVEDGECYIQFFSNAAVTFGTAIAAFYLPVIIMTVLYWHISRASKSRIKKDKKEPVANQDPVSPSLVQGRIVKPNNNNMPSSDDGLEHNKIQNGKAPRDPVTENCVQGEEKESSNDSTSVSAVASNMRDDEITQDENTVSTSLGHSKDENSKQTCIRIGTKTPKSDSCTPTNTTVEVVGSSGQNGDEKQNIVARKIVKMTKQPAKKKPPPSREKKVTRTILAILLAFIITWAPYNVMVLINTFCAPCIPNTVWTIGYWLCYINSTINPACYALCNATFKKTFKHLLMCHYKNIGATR

[8] = target: T4, Muscarinic acetylcholine receptor M2; assay: Antagonist activity at Muscarinic M2 receptor (unknown origin); format: functional
Mu-type opioid receptor = Mu-type opioid receptor (Homo sapiens, UniProt P35372); assay: Agonist activity at MOR (unknown origin); format: functional
[9] = target: T5, Kappa-type opioid receptor (Homo sapiens, UniProt P41145); assay: Agonist activity at KOR (unknown origin); format: functional
T5 sequence (P41145 whole entry): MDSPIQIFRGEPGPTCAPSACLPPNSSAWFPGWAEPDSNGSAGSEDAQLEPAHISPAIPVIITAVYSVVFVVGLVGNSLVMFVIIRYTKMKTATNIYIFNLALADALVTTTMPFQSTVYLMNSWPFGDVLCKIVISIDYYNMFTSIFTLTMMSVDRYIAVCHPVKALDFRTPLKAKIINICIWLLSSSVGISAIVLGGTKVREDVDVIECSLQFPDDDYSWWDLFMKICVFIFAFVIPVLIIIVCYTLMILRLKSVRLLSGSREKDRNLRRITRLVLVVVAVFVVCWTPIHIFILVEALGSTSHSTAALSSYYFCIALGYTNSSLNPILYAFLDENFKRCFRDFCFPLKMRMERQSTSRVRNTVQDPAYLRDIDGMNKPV

[10] = target: T5, Kappa-type opioid receptor; assay: Antagonist activity at KOR (unknown origin); format: functional
[11] = target: T6, 5-hydroxytryptamine receptor 1B (Homo sapiens, UniProt P28222); assay: Agonist activity at 5-HT1B receptor (unknown origin); format: functional
T6 sequence (P28222 whole entry): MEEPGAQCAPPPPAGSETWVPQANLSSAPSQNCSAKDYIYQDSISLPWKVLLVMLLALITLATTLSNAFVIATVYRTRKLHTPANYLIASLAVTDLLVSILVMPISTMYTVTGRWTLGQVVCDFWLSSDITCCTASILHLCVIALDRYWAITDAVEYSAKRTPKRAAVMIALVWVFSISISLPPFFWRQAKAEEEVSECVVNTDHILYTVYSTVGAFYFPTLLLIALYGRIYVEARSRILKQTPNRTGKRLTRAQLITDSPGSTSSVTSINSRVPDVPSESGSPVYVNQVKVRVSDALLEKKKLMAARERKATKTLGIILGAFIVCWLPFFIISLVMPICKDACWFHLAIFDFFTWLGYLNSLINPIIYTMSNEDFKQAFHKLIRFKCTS

[12] = target: T6, 5-hydroxytryptamine receptor 1B; assay: Antagonist activity at 5-HT1B (unknown origin); format: functional
[13] = target: T7, 5-hydroxytryptamine receptor 2A (Homo sapiens, UniProt P28223); assay: Agonist activity at 5-HT2A receptor (unknown origin); format: functional
T7 sequence (P28223 whole entry): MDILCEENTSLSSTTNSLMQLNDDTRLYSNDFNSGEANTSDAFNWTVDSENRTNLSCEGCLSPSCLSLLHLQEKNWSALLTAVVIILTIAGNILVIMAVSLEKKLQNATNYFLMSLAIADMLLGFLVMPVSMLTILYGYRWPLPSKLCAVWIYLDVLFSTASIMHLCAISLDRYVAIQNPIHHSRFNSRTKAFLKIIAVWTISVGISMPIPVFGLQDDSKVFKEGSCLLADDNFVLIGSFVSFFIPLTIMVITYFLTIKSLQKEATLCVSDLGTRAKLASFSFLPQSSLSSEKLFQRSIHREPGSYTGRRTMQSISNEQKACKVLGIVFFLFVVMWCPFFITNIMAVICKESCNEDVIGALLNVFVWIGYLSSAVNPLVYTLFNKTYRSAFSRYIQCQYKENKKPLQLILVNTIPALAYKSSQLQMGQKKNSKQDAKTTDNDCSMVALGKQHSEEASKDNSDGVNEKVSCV

[14] = target: T7, 5-hydroxytryptamine receptor 2A; assay: Antagonist activity at 5-HT2A receptor (unknown origin); format: functional
[15] = target: T8, 5-hydroxytryptamine receptor 2C (Homo sapiens, UniProt P28335); assay: Agonist activity at 5-HT2C receptor (unknown origin); format: functional
T8 sequence (P28335 whole entry): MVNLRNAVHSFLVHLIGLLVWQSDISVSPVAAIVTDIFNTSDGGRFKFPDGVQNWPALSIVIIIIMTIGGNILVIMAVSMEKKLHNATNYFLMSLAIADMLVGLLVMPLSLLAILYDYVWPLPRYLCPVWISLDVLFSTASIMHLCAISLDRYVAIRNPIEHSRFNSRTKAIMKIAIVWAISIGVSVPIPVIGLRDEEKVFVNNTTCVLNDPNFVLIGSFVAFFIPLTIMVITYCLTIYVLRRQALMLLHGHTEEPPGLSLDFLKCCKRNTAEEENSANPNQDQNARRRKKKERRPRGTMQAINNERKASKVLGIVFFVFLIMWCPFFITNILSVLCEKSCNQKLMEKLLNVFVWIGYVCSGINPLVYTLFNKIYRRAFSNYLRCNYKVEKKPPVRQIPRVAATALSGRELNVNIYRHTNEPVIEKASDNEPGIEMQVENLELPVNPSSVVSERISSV

[16] = target: T8, 5-hydroxytryptamine receptor 2C; assay: Antagonist activity at 5-HT2C receptor (unknown origin); format: functional
Vasopressin V1a receptor = Vasopressin V1a receptor (Homo sapiens, UniProt P37288); assay: Antagonist activity at V1a receptor (unknown origin); format: functional
Sequence of Vasopressin V1a receptor (P37288 whole entry): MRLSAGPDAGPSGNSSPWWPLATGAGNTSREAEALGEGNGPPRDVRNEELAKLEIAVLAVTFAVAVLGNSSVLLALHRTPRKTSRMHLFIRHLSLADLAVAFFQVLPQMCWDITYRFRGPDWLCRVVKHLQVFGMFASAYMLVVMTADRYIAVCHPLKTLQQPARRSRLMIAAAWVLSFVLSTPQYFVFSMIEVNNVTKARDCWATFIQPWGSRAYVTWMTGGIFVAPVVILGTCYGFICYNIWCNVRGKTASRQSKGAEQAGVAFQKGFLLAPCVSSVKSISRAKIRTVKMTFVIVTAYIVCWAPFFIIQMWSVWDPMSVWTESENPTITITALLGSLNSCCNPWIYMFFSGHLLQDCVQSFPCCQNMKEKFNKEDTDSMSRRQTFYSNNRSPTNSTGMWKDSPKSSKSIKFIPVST

[17] = Inhibition of COX (unknown origin); design: species or system Homo sapiens
Acetylcholinesterase = Acetylcholinesterase (Homo sapiens, UniProt P22303); assay: Inhibition of AChE (unknown origin)
[18] = target: Potassium voltage-gated channel subfamily A member 5 (Homo sapiens, UniProt P22460); assay: Inhibition of Kv1.5 (unknown origin)
[19] = target: Voltage-gated inwardly rectifying potassium channel KCNH2 (Homo sapiens, UniProt Q12809); assay: Inhibition of hERG (unknown origin); format: toxicity
Sequence of Voltage-gated inwardly rectifying potassium channel KCNH2 (Q12809 whole entry): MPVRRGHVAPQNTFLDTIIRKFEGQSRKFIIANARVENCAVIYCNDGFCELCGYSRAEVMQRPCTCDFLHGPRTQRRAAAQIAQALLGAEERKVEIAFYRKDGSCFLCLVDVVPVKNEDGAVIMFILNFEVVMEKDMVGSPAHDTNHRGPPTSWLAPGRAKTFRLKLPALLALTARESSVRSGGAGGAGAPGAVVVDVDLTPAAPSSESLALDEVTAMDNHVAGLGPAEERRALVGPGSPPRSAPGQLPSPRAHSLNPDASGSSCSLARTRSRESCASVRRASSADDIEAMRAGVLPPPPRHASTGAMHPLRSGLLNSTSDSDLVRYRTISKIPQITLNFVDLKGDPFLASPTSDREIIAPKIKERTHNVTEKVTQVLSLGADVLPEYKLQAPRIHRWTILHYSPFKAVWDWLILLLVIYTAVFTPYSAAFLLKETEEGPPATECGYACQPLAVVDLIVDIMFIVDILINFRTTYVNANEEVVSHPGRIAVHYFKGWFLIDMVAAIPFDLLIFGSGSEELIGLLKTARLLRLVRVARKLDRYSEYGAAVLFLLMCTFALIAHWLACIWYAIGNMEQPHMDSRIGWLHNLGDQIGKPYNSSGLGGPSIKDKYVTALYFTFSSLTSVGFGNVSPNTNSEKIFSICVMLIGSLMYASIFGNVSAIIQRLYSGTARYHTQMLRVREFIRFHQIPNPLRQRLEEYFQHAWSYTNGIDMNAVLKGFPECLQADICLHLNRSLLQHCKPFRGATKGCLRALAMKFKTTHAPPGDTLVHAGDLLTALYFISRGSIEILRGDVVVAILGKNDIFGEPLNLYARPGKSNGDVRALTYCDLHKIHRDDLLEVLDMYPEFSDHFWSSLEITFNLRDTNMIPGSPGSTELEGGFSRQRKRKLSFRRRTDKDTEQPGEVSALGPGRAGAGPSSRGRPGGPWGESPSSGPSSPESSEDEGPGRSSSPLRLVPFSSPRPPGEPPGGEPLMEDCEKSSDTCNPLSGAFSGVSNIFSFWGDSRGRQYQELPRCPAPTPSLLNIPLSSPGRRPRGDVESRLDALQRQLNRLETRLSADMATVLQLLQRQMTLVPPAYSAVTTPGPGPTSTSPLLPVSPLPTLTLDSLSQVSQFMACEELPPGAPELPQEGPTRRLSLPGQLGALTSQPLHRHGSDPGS

[20] = target: Sodium channel protein type 5 subunit alpha (Homo sapiens, UniProt Q14524); assay: Inhibition of Nav1.5 (unknown origin)
[21] = target: Serotonin 3 (5-HT3) receptor; assay: Inhibition of 5-HT3 receptor (unknown origin); format: protein-complex assay, Homo sapiens
[22] = target: Tyrosine-protein kinase Lck (Homo sapiens, UniProt P06239); assay: Inhibition of LCK (unknown origin)
[23] = target: Phosphatidylinositol 4,5-bisphosphate 3-kinase catalytic subunit gamma isoform (Homo sapiens, UniProt P48736); assay: Inhibition of PI3Kgamma (unknown origin)
[24] = target: Sodium-dependent noradrenaline transporter (Homo sapiens, UniProt P23975); assay: Inhibition of NET (unknown origin)
Sequence of Sodium-dependent noradrenaline transporter (P23975 whole entry): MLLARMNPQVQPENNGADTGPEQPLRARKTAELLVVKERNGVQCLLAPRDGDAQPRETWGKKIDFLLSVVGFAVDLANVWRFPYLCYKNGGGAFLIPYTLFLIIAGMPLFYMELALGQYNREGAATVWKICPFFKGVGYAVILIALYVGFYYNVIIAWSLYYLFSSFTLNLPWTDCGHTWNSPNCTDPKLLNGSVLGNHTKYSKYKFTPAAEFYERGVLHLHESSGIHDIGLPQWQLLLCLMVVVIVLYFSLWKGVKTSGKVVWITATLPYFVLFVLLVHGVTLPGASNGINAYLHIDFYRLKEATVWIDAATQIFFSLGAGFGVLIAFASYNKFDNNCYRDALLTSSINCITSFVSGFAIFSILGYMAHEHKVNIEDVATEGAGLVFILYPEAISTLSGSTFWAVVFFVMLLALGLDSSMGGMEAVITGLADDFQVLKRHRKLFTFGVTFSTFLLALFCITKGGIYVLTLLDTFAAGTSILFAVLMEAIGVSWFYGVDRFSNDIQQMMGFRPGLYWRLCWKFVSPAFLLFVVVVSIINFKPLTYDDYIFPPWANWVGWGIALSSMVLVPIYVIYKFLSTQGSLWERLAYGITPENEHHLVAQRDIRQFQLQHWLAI

[25] = target: Sodium-dependent serotonin transporter (Homo sapiens, UniProt P31645); assay: Inhibition of SERT (unknown origin)
[26] = target: Solute carrier organic anion transporter family member 1B1 (Homo sapiens, UniProt Q9Y6L6); assay: Inhibition of OATP1B1 (unknown origin)
[27] = target: Nuclear receptor subfamily 1 group I member 2 (Homo sapiens, UniProt O75469); assay: Activation of PXR (unknown origin)
Sequence of Nuclear receptor subfamily 1 group I member 2 (O75469 whole entry): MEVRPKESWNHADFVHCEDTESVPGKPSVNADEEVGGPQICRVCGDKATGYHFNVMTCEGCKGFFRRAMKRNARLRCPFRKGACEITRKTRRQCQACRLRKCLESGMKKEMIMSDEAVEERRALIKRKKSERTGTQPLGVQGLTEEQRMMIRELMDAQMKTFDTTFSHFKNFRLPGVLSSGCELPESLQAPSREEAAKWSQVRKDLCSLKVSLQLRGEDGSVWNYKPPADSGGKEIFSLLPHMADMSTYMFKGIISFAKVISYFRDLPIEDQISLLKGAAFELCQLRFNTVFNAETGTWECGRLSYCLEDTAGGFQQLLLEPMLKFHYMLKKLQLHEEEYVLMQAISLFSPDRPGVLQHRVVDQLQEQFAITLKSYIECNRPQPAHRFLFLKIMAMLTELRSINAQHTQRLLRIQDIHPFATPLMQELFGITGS

[28] = target: Aryl hydrocarbon receptor (Homo sapiens, UniProt P35869); assay: Activation of AhR (unknown origin)

Question: With `c1ccc([C@@H]2C[C@H]2NC2CCNCC2)cc1` as the molecule, how does the EC50 (Adenosine receptor A2a) read?
Answer: The EC50 was over 100 µM.

Question: What about the EC50 [1] of the same molecule?
Answer: Its EC50 is over 25 µM.

Question: What about the EC50 [2] of the same molecule?
Answer: The EC50 was over 100 µM.

Question: And the EC50 [3]?
Answer: Its EC50 is over 100 µM.

Question: What about the EC50 (Cannabinoid receptor 2) of the same molecule?
Answer: Its EC50 is over 100 µM.

Question: And the EC50 (D(2) dopamine receptor [4])?
Answer: The EC50 was over 100 µM.

Question: And the EC50 (D(2) dopamine receptor [5])?
Answer: Its EC50 is over 100 µM.

Question: And the EC50 [6]?
Answer: The EC50 was over 30 µM.

Question: What about the EC50 [7] of the same molecule?
Answer: The EC50 was over 30 µM.

Question: And the EC50 [8]?
Answer: Its EC50 is over 30 µM.

Question: And the EC50 (Mu-type opioid receptor)?
Answer: The EC50 was over 100 µM.

Question: What about the EC50 [9] of the same molecule?
Answer: The EC50 was over 100 µM.

Question: What about the EC50 [10] of the same molecule?
Answer: Its EC50 is over 100 µM.

Question: And the EC50 [11]?
Answer: The EC50 was 5 µM.

Question: And the EC50 [12]?
Answer: The EC50 was over 100 µM.

Question: And the EC50 [13]?
Answer: Its EC50 is over 25 µM.

Question: And the EC50 [14]?
Answer: Its EC50 is 16 µM.

Question: What about the EC50 [15] of the same molecule?
Answer: Its EC50 is over 25 µM.

Question: And the EC50 [16]?
Answer: The EC50 was over 25 µM.

Question: And the EC50 (Vasopressin V1a receptor)?
Answer: The EC50 was over 30 µM.

Question: What about the IC50 [17] of the same molecule?
Answer: The IC50 was over 100 µM.

Question: What about the IC50 (Acetylcholinesterase) of the same molecule?
Answer: Its IC50 is over 100 µM.

Question: And the IC50 [18]?
Answer: The IC50 was over 30 µM.

Question: What about the IC50 [19] of the same molecule?
Answer: Its IC50 is over 30 µM.

Question: And the IC50 [20]?
Answer: Its IC50 is over 100 µM.

Question: And the IC50 [21]?
Answer: Its IC50 is over 30 µM.

Question: And the IC50 [22]?
Answer: The IC50 was over 32 µM.

Question: And the IC50 [23]?
Answer: The IC50 was over 32 µM.

Question: What about the IC50 [24] of the same molecule?
Answer: Its IC50 is 25 µM.

Question: What about the IC50 [25] of the same molecule?
Answer: The IC50 was 2 µM.

Question: What about the IC50 [26] of the same molecule?
Answer: The IC50 was over 30 µM.

Question: And the EC50 [27]?
Answer: Its EC50 is over 30 µM.

Question: And the EC50 [28]?
Answer: Its EC50 is over 100 µM.

Question: For `O=C(O)c1ccc(CN2CCC(CN[C@@H]3C[C@H]3c3ccccc3)CC2)cc1` [GSK2879552], which EC50 (Adenosine receptor A2a) is on record?
Answer: Its EC50 is over 32 µM.

Question: What about the EC50 [1] of the same molecule?
Answer: The EC50 was over 40 µM.

Question: What about the EC50 [2] of the same molecule?
Answer: The EC50 was over 32 µM.

Question: What about the EC50 [3] of the same molecule?
Answer: Its EC50 is over 32 µM.

Question: What about the EC50 (Cannabinoid receptor 2) of the same molecule?
Answer: The EC50 was over 100 µM.

Question: What about the EC50 (D(2) dopamine receptor [4]) of the same molecule?
Answer: The EC50 was 20 µM.

Question: And the EC50 (D(2) dopamine receptor [5])?
Answer: Its EC50 is over 100 µM.

Question: And the EC50 [6]?
Answer: The EC50 was over 16 µM.

Question: And the EC50 [7]?
Answer: The EC50 was over 16 µM.

Question: And the EC50 [8]?
Answer: Its EC50 is over 16 µM.

Question: What about the EC50 (Mu-type opioid receptor) of the same molecule?
Answer: Its EC50 is over 100 µM.

Question: And the EC50 [9]?
Answer: The EC50 was over 100 µM.

Question: What about the EC50 [10] of the same molecule?
Answer: The EC50 was over 100 µM.

Question: And the EC50 [11]?
Answer: Its EC50 is over 32 µM.

Question: And the EC50 [12]?
Answer: Its EC50 is over 30 µM.

Question: And the EC50 [13]?
Answer: Its EC50 is over 40 µM.

Question: And the EC50 [14]?
Answer: The EC50 was 20 µM.

Question: What about the EC50 [15] of the same molecule?
Answer: The EC50 was over 40 µM.

Question: And the EC50 [16]?
Answer: The EC50 was over 40 µM.

Question: What about the EC50 (Vasopressin V1a receptor) of the same molecule?
Answer: The EC50 was over 30 µM.

Question: What about the IC50 [17] of the same molecule?
Answer: The IC50 was 25 µM.

Question: And the IC50 (Acetylcholinesterase)?
Answer: Its IC50 is over 100 µM.

Question: What about the IC50 [18] of the same molecule?
Answer: Its IC50 is over 30 µM.

Question: And the IC50 [19]?
Answer: The IC50 was over 25 µM.

Question: What about the IC50 [20] of the same molecule?
Answer: Its IC50 is 80 µM.

Question: What about the IC50 [21] of the same molecule?
Answer: Its IC50 is over 30 µM.

Question: What about the IC50 [22] of the same molecule?
Answer: Its IC50 is over 32 µM.

Question: What about the IC50 [23] of the same molecule?
Answer: Its IC50 is over 32 µM.

Question: And the IC50 [24]?
Answer: Its IC50 is over 100 µM.

Question: What about the IC50 [25] of the same molecule?
Answer: Its IC50 is 80 µM.

Question: What about the IC50 [26] of the same molecule?
Answer: The IC50 was over 30 µM.

Question: And the EC50 [27]?
Answer: Its EC50 is over 30 µM.

Question: And the EC50 [28]?
Answer: The EC50 was over 100 µM.
